This assay has as its system P388 leukemia ip, CD2F1 mice, survival T/C. As to the kind of experiment: NCI In Vivo Anticancer Drug Screen. Data for tumor model P388 Leukemia (intraperitoneal) in CD2F1 (CDF1) mice. The following applies: endpoint: median survival time, higher = longer survival. How it is done:
The antitumor activity of compounds was measured in mice bearing transplantable tumors. Survival or tumor size were measured and the results are expressed as the measurement made in the treated group (T) divided by the measurement made in the vehicle treated control group (C). The tumor model used in this assay is P388 Leukemia (intraperitoneal) in CD2F1 (CDF1) mice

Where [1] appears, read: dose: 50.0 mg/kg/injection, schedule: Q01DX009 (ip), vehicle: saline.
[2] abbreviates: dose: 100.0 mg/kg/injection, schedule: Q01DX009 (ip), vehicle: saline.
Setting [3] is: dose: 50.0 mg/kg/injection, schedule: Q01DX005 (ip), vehicle: Klucel (hydroxypropylcellulose) (HPC).
Where [4] appears, read: dose: 100.0 mg/kg/injection, schedule: Q01DX005 (ip), vehicle: Klucel (hydroxypropylcellulose) (HPC).
Setting [5] is: dose: 200.0 mg/kg/injection, schedule: Q01DX005 (ip), vehicle: Klucel (hydroxypropylcellulose) (HPC).
Where [6] appears, read: dose: 50.0 mg/kg/injection, schedule: Q01DX009 (ip), vehicle: saline with Tween-80.
The mark [7] stands for this setting: dose: 100.0 mg/kg/injection, schedule: Q01DX009 (ip), vehicle: saline with Tween-80.
Where [8] appears, read: dose: 25.0 mg/kg/injection, schedule: Q01DX009 (ip), vehicle: Klucel (hydroxypropylcellulose) (HPC).
Setting [9] is: dose: 50.0 mg/kg/injection, schedule: Q01DX009 (ip), vehicle: Klucel (hydroxypropylcellulose) (HPC).
Where [10] appears, read: dose: 100.0 mg/kg/injection, schedule: Q01DX009 (ip), vehicle: Klucel (hydroxypropylcellulose) (HPC).
Setting [11] is: dose: 200.0 mg/kg/injection, schedule: Q01DX009 (ip), vehicle: saline.
Where [12] appears, read: dose: 50.0 mg/kg/injection, schedule: Q01DX005 (ip), vehicle: saline with Tween-80.
[13] abbreviates: dose: 100.0 mg/kg/injection, schedule: Q01DX005 (ip), vehicle: saline with Tween-80.
The mark [14] stands for this setting: dose: 200.0 mg/kg/injection, schedule: Q01DX005 (ip), vehicle: saline with Tween-80.
The mark [15] stands for this setting: dose: 200.0 mg/kg/injection, schedule: Q01DX009 (ip), vehicle: saline with Tween-80.
The mark [16] stands for this setting: dose: 12.5 mg/kg/injection, schedule: Q01DX005 (ip), vehicle: Klucel (hydroxypropylcellulose) (HPC).
Where [17] appears, read: dose: 25.0 mg/kg/injection, schedule: Q01DX005 (ip), vehicle: Klucel (hydroxypropylcellulose) (HPC).

“And” between values parts separate entries of the source, which are not always exact repeats. Equal entries are not always repeated. Inconclusive results and toxic doses are left out.

Results on 25 compounds are retold here after PubChem BioAssay AID330 (DTP/NCI, 2004).

For the compound `C[N+](C)(N)Cc1nc(-c2ccc(Cl)cc2)no1`, the T/C under setting [1] is 98 % of control and the T/C under setting [2] is 93 % of control.
For the compound `Cc1ccc(OP2(=O)NC3CCCCC3N2)cc1` (stereo not given), the T/C under setting [3] was 99 % of control, the T/C under setting [4] is 93 % of control and the T/C under setting [5] was 96 % of control.
As to `CSC1C(=O)Nc2ccc([N+](=O)[O-])cc21` (stereo not given), the T/C is 96 % of control (dose: 25.0 mg/kg/injection, schedule: Q01DX009 (ip), vehicle: saline with Tween-80); 105 % of control under setting [6]; 113 % of control under setting [7].
In the case of `CC1(C)C2CCC1(C)C(OC(=O)/C=C/c1ccc(O)c(O)c1)C2` (stereo not given), the T/C is, setting by setting: (dose: 12.5 mg/kg/injection, schedule: Q01DX009 (ip), vehicle: Klucel (hydroxypropylcellulose) (HPC)) 100 % of control; under setting [8], 98 % of control; under setting [9], 87 % of control; under setting [10], 97 % of control.
On to `CC(=O)OC1C(O)C(C)OC(OC(=O)C2CCC3C(C2)OC2(CC(OC(=O)/C=C/c4ccccc4)C(C)CO2)C32CO2)C1OC1OC(C)C(O)C(O)C1O` (stereo not given), for which the T/C was 100 % of control and 118 % of control (dose: 2.0 mg/kg/injection, schedule: Q01DX005 (ip), vehicle: saline + alcohol); 119 % of control (dose: 4.0 mg/kg/injection, schedule: Q01DX005 (ip), vehicle: saline + alcohol); 151 % of control (dose: 16.0 mg/kg/injection, schedule: Q01DX005 (ip), vehicle: saline + alcohol); 154 % of control (dose: 32.0 mg/kg/injection, schedule: Q01DX005 (ip), vehicle: saline + alcohol); 163 % of control (dose: 64.0 mg/kg/injection, schedule: Q01DX005 (ip), vehicle: saline + alcohol).
`c1ccc(-c2[nH]c3ccccc3c2-c2c(-c3ccccc3)[nH]c3ccccc23)cc1`: the T/C is 100 % of control under setting [1], 96 % of control under setting [2] and 98 % of control under setting [11].
Regarding `CC(=O)OCc1c(-c2ccccc2)nc2n1CCS2`, the T/C was 101 % of control and 95 % of control (dose: 12.5 mg/kg/injection, schedule: Q01DX001 (ip), vehicle: Klucel (hydroxypropylcellulose) (HPC)); 114 % of control and 106 % of control (dose: 25.0 mg/kg/injection, schedule: Q01DX001 (ip), vehicle: Klucel (hydroxypropylcellulose) (HPC)); 108 % of control and 107 % of control (dose: 50.0 mg/kg/injection, schedule: Q01DX001 (ip), vehicle: Klucel (hydroxypropylcellulose) (HPC)); 86 % of control (dose: 100.0 mg/kg/injection, schedule: Q01DX001 (ip), vehicle: Klucel (hydroxypropylcellulose) (HPC)).
With `OCC(F)(F)C(F)(F)C(F)(F)CO`, the T/C reads like this: (dose: 100.0 mg/kg/injection, schedule: Q04DX003 (ip), vehicle: saline) 100 % of control; (dose: 200.0 mg/kg/injection, schedule: Q04DX003 (ip), vehicle: saline) 100 % of control; (dose: 400.0 mg/kg/injection, schedule: Q04DX003 (ip), vehicle: saline) 100 % of control.
As for `N=C(N)c1ccc(O)cc1`, the T/C (dose: 50.0 mg/kg/injection, schedule: Q01DX005 (ip), vehicle: saline) was 102 % of control; the T/C (dose: 100.0 mg/kg/injection, schedule: Q01DX005 (ip), vehicle: saline) is 111 % of control; the T/C (dose: 200.0 mg/kg/injection, schedule: Q01DX005 (ip), vehicle: saline) was 112 % of control.
For `S=C1CC(c2ccc(Sc3ccccc3)cc2)=Nc2ccccc2N1`, the T/C reads like this: under setting [8], 90 % of control; under setting [9], 90 % of control; under setting [10], 99 % of control and 87 % of control; (dose: 200.0 mg/kg/injection, schedule: Q01DX009 (ip), vehicle: Klucel (hydroxypropylcellulose) (HPC)) 100 % of control.
Take `O=[N+]([O-])c1ccc(CS(=O)(=O)OCCCl)cc1`: the T/C under setting [12] is 98 % of control, the T/C under setting [13] was 98 % of control and the T/C under setting [14] is 94 % of control.
Turning to `Cc1ccc(N=Nc2c(-c3ccccc3)nn(C(N)=S)c2C)cc1`, the T/C is, setting by setting: (dose: 100.0 mg/kg/injection, schedule: Q01DX001 (ip), vehicle: saline with Tween-80) 92 % of control; (dose: 200.0 mg/kg/injection, schedule: Q01DX001 (ip), vehicle: saline with Tween-80) 97 % of control; (dose: 400.0 mg/kg/injection, schedule: Q01DX001 (ip), vehicle: saline with Tween-80) 103 % of control.
With `O=C1C(=Cc2cccnc2)C(=O)c2ccccc21`, the T/C (dose: 60.0 mg/kg/injection, schedule: Q01DX005 (ip), vehicle: saline with Tween-80) was 106 % of control and the T/C (dose: 120.0 mg/kg/injection, schedule: Q01DX005 (ip), vehicle: saline with Tween-80) was 111 % of control.
On to `CCOC(=O)c1cn[nH]c1N`, for which the T/C was 108 % of control under setting [8] and 93 % of control under setting [9].
`C=C1C(=O)OC2CC3(C)OC(=CC3=O)/C(C)=C\C(OC(=O)C3(C)OC3C)C12` (stereo not given): the T/C is 105 % of control (dose: 1.56 mg/kg/injection, schedule: Q01DX005 (ip), vehicle: distilled water + Tween-80); 99 % of control (dose: 3.12 mg/kg/injection, schedule: Q01DX005 (ip), vehicle: distilled water + Tween-80); 96 % of control (dose: 6.25 mg/kg/injection, schedule: Q01DX005 (ip), vehicle: distilled water + Tween-80); 101 % of control (dose: 12.5 mg/kg/injection, schedule: Q01DX005 (ip), vehicle: distilled water + Tween-80).
Consider `CC(=O)c1cc(-c2ccc3ccccc3c2)nc2ccccc12`, for which the T/C was 96 % of control under setting [12], 94 % of control under setting [13] and 100 % of control under setting [14].
As for `COc1cc2c(cc1OC)-c1nc(Nc3ccccc3)sc1CC2`, the T/C reads like this: under setting [6], 106 % of control; under setting [7], 106 % of control; under setting [15], 89 % of control.
On to `Cc1cc2cc(C)nc(C)c2c(C)n1`, for which the T/C reads like this: under setting [3], 94 % of control; under setting [4], 89 % of control; under setting [5], 92 % of control.
For the compound `C[CH2][Ge]([CH2]C)[O]C(=O)C(=O)[O][Ge]([CH2]C)[CH2]C`, the T/C is 100 % of control under setting [16], 103 % of control under setting [17] and 118 % of control under setting [3].
In the case of `CSC1=NC=C(C#N)C2=NC(c3ccccc3)NN12` (stereo not given), the T/C by setting is: under setting [12], 98 % of control; under setting [13], 97 % of control; under setting [14], 100 % of control.
With `CC(=O)C1=C(c2ccc([N+](=O)[O-])cc2)NC(=O)NC1c1ccco1` (stereo not given), the T/C is 95 % of control (dose: 100.0 mg/kg/injection, schedule: Q04DX003 (ip), vehicle: saline with Tween-80); 100 % of control (dose: 200.0 mg/kg/injection, schedule: Q04DX003 (ip), vehicle: saline with Tween-80); 100 % of control (dose: 400.0 mg/kg/injection, schedule: Q04DX003 (ip), vehicle: saline with Tween-80).
For `CCOC(=O)NN(C(=O)OCC)C(C(C)=O)C(C)=NCCN=C(C)C(C(C)=O)N(NC(=O)OCC)C(=O)OCC.[Cu]` (stereo not given), the T/C is 100 % of control under setting [16]; 105 % of control under setting [17]; 100 % of control and 107 % of control under setting [3].
Turning to `CCOC(=O)c1cc2c(cc1O)C1CC=C(C)[C@@H]3CCO[C@](OC)(C2)[C@]13C(=O)OC` (stereo not given in full), the T/C runs as follows: (dose: 6.25 mg/kg/injection, schedule: Q01DX001 (ip), vehicle: saline with Tween-80) 106 % of control; (dose: 12.5 mg/kg/injection, schedule: Q01DX001 (ip), vehicle: saline with Tween-80) 101 % of control; (dose: 25.0 mg/kg/injection, schedule: Q01DX001 (ip), vehicle: saline with Tween-80) 111 % of control; (dose: 50.0 mg/kg/injection, schedule: Q01DX001 (ip), vehicle: saline with Tween-80) 100 % of control.
Take `OC(c1ccccc1)(C(F)(F)F)C(O)(c1ccccc1)C(F)(F)F` (stereo not given): the T/C was 99 % of control under setting [6], 104 % of control under setting [7] and 87 % of control under setting [15].
In the case of `O=C(Oc1ccc[nH]c1=O)C12CC3CC(CC(C3)C1)C2`, the T/C by setting is: under setting [1], 101 % of control; under setting [2], 100 % of control; under setting [11], 98 % of control and 94 % of control; (dose: 400.0 mg/kg/injection, schedule: Q01DX009 (ip), vehicle: saline) 99 % of control and 93 % of control.
